From ChEMBL document CHEMBL1201862, “PubChem BioAssay data set” (2004)
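96-well plates; 48 h exposure; 5 concentrations. Endpoints by linear interpolation between flanking doses. Not reached: highest tested concentration assigned. GI50: concentration for 50% inhibition of growth.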 Active and inactive are the calls of the source. Cut-off read from the data, not from the text of the source: active = GI50 up to about 1.1 µM and inactive = higher.

Columns and labels:
Assay in all cases: inhibition of tumour cell growth, NCI panel, 48 h
[1] = test system: IGROV-1
[2] = test system: SNB-75
[3] = test system: T47D
[4] = test system: SK-MEL-5
[5] = test system: ACHN
[6] = test system: CAKI-1
[7] = test system: MCF7
[8] = test system: BT-549
[9] = test system: SR
[10] = test system: SK-OV-3
[11] = test system: K562
[12] = test system: SF-295
[13] = test system: CCRF-CEM
[14] = test system: LOX IMVI
[15] = test system: UACC-62
[16] = test system: HT-29
[17] = test system: SW-620
[18] = test system: OVCAR-8
[19] = test system: RXF 393

Measured: GI50

COc1ccc(C(c2ccc(OC)cc2)N2C(=O)CCC2C(=O)O)cc1 (stereo not drawn)
inactive: [1] > 100 µM | [2] > 100 µM | [3] > 100 µM | [4] > 100 µM | [5] > 100 µM | [6] > 100 µM | [7] > 100 µM | [8] > 100 µM | [9] > 100 µM | [10] > 100 µM | [11] > 100 µM | [12] > 100 µM | [13] > 100 µM | [14] > 100 µM | [15] > 100 µM | [16] > 100 µM | [17] > 100 µM | [18] > 100 µM

Nn1c(-c2ccccc2)nn(C(=O)c2ccccc2)c1=O
inactive: [1] > 100 µM | [2] > 100 µM | [3] > 100 µM | [4] > 100 µM | [5] > 100 µM | [7] > 100 µM | [8] > 100 µM | [9] > 100 µM | [19] > 100 µM | [11] > 100 µM | [12] > 100 µM | [13] > 100 µM | [14] > 100 µM | [16] > 100 µM | [17] > 100 µM | [18] > 100 µM

O=C(c1ccccc1)N1C(=S)N(c2ccc([N+](=O)[O-])cc2)C(=N/c2ccccc2)/C1=N\c1ccccc1
inactive: [1] > 100 µM | [2] 24.4 µM | [3] > 100 µM | [4] > 100 µM | [5] 52 µM | [6] > 100 µM | [7] > 100 µM | [8] > 100 µM | [9] 20.6 µM | [19] > 100 µM | [10] > 100 µM | [11] 30.1 µM | [12] > 100 µM | [15] 97.5 µM | [16] > 100 µM | [17] > 100 µM | [18] 65.5 µM

Cc1ccc(/C=c2\c(=O)[nH]c3nc4ccccc4c(=O)n23)cc1
inactive: [2] 28.6 µM | [3] 41.9 µM | [5] > 100 µM | [6] > 100 µM | [7] 39.8 µM | [8] 21.6 µM | [19] 29.6 µM | [10] > 100 µM | [12] 73.1 µM | [13] 30.7 µM | [14] 29.1 µM | [15] 33.5 µM | [17] 21.8 µM | [18] 40.9 µM

CC1C2CC(C/C2=N/O)C1(C)C (stereo not drawn)
inactive: [1] > 100 µM | [2] > 100 µM | [3] > 100 µM | [4] > 100 µM | [5] > 100 µM | [6] > 100 µM | [7] > 100 µM | [8] > 100 µM | [9] > 100 µM | [19] > 100 µM | [10] > 100 µM | [11] > 100 µM | [12] > 100 µM | [13] > 100 µM | [15] > 100 µM | [16] > 100 µM | [17] > 100 µM | [18] > 100 µM

Oc1cc(Cc2ccccc2)c(Cc2ccccc2)cc1O
inactive: [1] > 10 µM | [2] 4.62 µM | [3] > 10 µM | [4] > 10 µM | [5] > 10 µM | [6] > 10 µM | [7] > 10 µM | [8] > 10 µM | [19] > 10 µM | [10] > 10 µM | [11] > 10 µM | [12] > 10 µM | [13] > 10 µM | [14] > 10 µM | [15] > 10 µM | [16] > 10 µM | [17] > 10 µM | [18] > 10 µM

CCCCn1cc(C(=O)O)c(=O)c2c3sccc3ccc21
inactive: [1] > 100 µM | [2] 25.8 µM | [3] > 100 µM | [4] > 100 µM | [5] > 100 µM | [6] > 100 µM | [7] > 100 µM | [8] > 100 µM | [19] > 100 µM | [10] > 100 µM | [11] > 100 µM | [12] 74.8 µM | [13] > 100 µM | [14] > 100 µM | [15] > 100 µM | [16] > 100 µM | [17] > 100 µM | [18] > 100 µM

O=[N+]([O-])c1nccn1CC1OC(n2ccnc2[N+](=O)[O-])C(O)C(O)C1O (stereo not drawn)
inactive: [2] > 100 µM | [3] 23.9 µM | [4] > 100 µM | [5] > 100 µM | [7] > 100 µM | [8] > 100 µM | [9] > 100 µM | [19] > 100 µM | [11] > 100 µM | [13] > 100 µM | [15] > 100 µM | [16] > 100 µM | [17] > 100 µM | [18] > 100 µM
